The results in this text go back to ChEMBL document CHEMBL4342518, “First Contact: 7-Phenyl-2-Aminoquinolines, Potent and Selective Neuronal Nitric Oxide Synthase Inhibitors That Target an Isoform-Specific Aspartate” (J Med Chem, 2020).

For data set [1], the target named is Nitric oxide synthase 1 (Rattus norvegicus, UniProt P29476).
The target in data set [2] is Nitric oxide synthase 1 (Homo sapiens, UniProt P29475).
The target of a further data set is T1, Nitric oxide synthase 3 (Homo sapiens, UniProt P29474).
T1 sequence (P29474 whole entry): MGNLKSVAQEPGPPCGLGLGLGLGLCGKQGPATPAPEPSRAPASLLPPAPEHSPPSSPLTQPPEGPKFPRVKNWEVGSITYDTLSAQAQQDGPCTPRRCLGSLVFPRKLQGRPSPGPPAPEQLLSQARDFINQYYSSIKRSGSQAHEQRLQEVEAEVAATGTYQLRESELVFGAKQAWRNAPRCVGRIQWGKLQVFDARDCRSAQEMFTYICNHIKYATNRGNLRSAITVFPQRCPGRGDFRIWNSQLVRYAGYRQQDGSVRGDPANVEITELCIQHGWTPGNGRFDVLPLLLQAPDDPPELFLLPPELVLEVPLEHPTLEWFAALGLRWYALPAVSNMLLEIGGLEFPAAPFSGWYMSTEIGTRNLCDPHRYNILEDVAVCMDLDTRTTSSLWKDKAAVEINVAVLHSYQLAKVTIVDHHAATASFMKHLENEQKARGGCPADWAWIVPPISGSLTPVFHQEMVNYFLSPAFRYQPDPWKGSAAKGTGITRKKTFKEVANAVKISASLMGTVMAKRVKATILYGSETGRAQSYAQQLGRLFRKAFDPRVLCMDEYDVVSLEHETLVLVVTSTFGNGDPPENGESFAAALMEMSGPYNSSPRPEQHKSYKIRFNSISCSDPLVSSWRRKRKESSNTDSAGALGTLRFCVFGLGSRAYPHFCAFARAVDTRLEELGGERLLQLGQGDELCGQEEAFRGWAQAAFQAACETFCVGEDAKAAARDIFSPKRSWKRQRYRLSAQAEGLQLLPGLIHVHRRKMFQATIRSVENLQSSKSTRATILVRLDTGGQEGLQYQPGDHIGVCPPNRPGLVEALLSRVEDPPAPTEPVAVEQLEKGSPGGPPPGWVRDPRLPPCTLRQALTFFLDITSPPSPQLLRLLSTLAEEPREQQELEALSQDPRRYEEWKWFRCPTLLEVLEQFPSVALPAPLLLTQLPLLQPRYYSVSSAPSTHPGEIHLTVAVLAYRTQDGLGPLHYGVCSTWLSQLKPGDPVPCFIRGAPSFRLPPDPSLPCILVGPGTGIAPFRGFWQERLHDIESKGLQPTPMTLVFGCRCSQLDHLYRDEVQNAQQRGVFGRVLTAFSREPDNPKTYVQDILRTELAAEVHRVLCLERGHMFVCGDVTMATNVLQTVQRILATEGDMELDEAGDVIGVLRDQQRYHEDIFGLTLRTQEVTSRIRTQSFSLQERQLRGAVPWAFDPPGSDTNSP

Data set [3] deals with Nitric oxide synthase, inducible (Homo sapiens, UniProt P35228).
The target of data set [4] is Nitric oxide synthase 1 (Rattus norvegicus, UniProt P29476, D597N).
Data set [5] can be described thus: in vitro. Particulars: human, liver microsomes.
The nature of data set [6]: in vitro. The note with it: human, liver microsomes, pH 7.4.
A short description of data set [7]: in vitro. The note with it: human, liver microsomes. This is another data set of the same source.
Data set [8] in a line: in vitro. Particulars: human, liver microsomes. The source holds these as a separate data set.

Nitric oxide synthase 1 (Rattus norvegicus, UniProt P29476), sequence (P29476 whole entry): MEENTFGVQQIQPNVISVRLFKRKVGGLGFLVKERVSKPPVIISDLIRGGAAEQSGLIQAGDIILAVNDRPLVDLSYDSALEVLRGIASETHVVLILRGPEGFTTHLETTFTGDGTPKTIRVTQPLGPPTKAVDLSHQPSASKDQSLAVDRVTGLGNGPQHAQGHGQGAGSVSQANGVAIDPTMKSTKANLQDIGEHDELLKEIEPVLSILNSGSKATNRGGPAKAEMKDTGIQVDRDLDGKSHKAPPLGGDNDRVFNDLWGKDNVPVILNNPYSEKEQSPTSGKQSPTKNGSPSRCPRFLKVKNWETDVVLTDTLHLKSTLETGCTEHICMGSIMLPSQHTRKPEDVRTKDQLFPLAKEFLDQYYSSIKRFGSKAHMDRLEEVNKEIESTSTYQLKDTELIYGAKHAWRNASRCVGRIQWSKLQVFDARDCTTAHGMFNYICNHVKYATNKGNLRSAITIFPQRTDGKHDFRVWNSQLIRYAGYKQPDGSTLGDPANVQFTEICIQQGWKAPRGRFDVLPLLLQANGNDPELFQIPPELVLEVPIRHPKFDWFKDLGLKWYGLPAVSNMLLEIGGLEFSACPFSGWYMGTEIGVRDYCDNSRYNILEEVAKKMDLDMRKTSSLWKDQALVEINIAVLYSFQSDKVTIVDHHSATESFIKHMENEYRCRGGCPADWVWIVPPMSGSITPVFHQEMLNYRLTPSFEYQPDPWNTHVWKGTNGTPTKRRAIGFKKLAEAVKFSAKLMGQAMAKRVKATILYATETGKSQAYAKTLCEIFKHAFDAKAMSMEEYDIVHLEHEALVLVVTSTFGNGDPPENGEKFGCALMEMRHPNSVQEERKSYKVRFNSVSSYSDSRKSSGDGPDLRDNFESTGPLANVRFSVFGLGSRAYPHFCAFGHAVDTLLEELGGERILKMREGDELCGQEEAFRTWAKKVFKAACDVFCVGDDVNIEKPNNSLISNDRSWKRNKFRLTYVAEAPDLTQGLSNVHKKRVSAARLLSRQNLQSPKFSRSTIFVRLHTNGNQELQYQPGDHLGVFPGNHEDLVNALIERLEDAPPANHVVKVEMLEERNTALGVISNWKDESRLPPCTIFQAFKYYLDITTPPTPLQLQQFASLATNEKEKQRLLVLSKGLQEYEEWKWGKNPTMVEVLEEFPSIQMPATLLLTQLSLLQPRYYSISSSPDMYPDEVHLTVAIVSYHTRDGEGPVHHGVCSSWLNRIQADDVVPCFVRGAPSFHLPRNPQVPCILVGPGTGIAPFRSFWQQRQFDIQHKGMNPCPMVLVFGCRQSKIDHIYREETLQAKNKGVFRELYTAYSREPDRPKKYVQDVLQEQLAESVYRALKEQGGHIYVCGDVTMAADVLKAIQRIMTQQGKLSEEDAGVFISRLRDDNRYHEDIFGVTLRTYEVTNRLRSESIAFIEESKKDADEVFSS
Nitric oxide synthase 1 (Rattus norvegicus, UniProt P29476, D597N), sequence (P29476 whole entry D597N): as the sequence (P29476 whole entry) above, with D597N counted along it
Nitric oxide synthase 1 (Homo sapiens, UniProt P29475), sequence (P29475 whole entry): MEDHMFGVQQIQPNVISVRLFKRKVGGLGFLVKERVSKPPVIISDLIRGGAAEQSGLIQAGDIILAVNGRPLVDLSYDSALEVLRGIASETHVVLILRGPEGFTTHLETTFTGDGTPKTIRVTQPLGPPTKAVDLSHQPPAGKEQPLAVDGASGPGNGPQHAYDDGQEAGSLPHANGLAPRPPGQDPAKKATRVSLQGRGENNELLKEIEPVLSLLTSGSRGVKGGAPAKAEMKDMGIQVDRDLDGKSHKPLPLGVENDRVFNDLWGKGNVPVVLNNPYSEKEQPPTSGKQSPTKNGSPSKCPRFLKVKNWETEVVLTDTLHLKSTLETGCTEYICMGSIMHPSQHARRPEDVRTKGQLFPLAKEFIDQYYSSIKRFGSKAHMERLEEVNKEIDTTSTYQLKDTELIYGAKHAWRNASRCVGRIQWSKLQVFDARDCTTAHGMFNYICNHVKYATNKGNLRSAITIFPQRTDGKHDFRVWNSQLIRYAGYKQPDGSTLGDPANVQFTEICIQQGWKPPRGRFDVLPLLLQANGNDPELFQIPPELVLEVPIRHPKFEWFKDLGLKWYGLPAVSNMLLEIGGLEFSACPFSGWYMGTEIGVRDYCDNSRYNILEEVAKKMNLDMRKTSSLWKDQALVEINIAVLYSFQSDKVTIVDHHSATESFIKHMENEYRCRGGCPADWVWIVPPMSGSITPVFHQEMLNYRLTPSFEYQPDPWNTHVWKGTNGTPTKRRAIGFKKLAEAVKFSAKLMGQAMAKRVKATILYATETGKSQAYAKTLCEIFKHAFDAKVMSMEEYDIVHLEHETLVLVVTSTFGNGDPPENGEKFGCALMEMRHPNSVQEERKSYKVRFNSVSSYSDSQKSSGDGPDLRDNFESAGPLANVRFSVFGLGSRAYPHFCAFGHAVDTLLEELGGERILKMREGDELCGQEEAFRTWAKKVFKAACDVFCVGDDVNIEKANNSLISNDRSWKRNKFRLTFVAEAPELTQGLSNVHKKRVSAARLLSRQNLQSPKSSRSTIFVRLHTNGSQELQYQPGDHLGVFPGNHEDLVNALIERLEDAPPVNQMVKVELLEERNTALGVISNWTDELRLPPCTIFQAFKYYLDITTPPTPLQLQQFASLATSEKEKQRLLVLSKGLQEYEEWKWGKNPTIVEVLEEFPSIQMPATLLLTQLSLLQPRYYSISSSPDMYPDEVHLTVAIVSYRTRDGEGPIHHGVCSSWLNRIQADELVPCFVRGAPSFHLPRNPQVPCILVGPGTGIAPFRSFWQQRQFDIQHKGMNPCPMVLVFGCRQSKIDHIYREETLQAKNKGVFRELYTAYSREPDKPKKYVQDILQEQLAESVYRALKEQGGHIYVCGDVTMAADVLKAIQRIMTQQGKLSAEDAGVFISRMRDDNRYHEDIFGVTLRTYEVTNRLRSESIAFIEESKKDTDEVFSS
Nitric oxide synthase, inducible, sequence (P35228 whole entry): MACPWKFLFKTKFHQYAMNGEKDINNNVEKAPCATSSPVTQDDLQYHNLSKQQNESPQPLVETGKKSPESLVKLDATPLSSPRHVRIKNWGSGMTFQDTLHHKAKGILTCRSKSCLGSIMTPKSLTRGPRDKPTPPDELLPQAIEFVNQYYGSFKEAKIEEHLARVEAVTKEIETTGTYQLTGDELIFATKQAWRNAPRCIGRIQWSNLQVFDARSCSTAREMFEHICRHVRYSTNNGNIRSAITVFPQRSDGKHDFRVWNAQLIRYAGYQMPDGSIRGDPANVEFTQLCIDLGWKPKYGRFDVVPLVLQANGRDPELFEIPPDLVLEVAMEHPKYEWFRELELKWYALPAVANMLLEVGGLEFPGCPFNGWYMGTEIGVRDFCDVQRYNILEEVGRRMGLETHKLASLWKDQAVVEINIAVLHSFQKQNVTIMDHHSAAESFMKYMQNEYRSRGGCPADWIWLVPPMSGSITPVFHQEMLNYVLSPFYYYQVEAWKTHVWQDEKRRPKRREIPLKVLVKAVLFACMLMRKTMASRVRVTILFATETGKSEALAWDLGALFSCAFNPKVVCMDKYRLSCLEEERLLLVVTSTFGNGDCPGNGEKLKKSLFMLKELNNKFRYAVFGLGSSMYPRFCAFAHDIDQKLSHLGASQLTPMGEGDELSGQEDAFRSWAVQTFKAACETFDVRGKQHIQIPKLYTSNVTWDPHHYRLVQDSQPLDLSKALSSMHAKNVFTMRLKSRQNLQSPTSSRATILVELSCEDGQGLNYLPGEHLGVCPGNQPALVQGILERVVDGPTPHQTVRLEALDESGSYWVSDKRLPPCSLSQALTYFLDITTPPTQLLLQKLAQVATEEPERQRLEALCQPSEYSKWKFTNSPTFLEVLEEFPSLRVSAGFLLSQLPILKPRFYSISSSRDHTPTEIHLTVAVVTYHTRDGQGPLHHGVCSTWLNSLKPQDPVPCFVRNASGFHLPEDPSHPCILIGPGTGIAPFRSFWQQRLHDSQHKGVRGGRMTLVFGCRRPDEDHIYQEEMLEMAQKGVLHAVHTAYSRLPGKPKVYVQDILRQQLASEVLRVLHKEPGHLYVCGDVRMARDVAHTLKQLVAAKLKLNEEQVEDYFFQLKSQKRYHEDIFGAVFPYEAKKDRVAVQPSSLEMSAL

As to `Cc1cc(N)nc2cc(-c3cccc(CN)c3)ccc12.Cl.Cl`, the Ki at Nitric oxide synthase 1 [1] is 0.055 µM; at Nitric oxide synthase 1 [2], 0.06 µM; on Nitric oxide synthase 3, 52.6 µM; in data set [3], 29.9 µM; on Nitric oxide synthase 1 [4], 0.416 µM. In addition, the amount remaining at 1 h, 1.426 µM came to 87% in the data set “in vitro [5]” and 67% in the data set “in vitro [6]”. In “in vitro [7]”, the half-life at 1 h, 1.426 µM is greater than 1 h. The CLint scaled at 1 h, 1.426 µM in the data set “in vitro [8]” is 8 mL/min/kg.
